Data as given in US20100298141A1, “SUBSTITUTED PYRIDINE N-OXIDE HERBICIDES” (E. I. DU PONT DE NEMOURS AND COMPANY, priority 2007, published 2010).

Legend:
Assay in all cases: Test F preemergence test
guineagrass = assay type: in vivo, Panicum maximum; settings: scale 0 to 100
Outline: (§1)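 Compounds in a non-phytotoxic solvent formulation with surfactant were applied before emergence after sowing, or, for sugarcane, also postemergence. Evaluation was visual, against controls, after 14 to 21 greenhouse days.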

Surinam grass = assay type: in vivo, Brachiaria decumbens; settings: scale 0 to 100
Outline: as §1

large crabgrass = assay type: in vivo, Digitaria sanguinalis; settings: scale 0 to 100
Outline: as §1

barnyardgrass = assay type: in vivo, Echinochloa crus-galli
Outline: as §1

field bindweed = assay type: in vivo, Convolvulus arvensis; settings: scale 0 to 100
Outline: as §1

annual bluegrass = assay type: in vivo, Poa annua; settings: scale 0 to 100
Outline: as §1

Italian ryegrass = assay type: in vivo, Lolium multiflorum; settings: scale 0 to 100
Outline: as §1

common purslane = assay type: in vivo, Portulaca oleracea; settings: scale 0 to 100
Outline: as §1

dallisgrass = assay type: in vivo, Paspalum dilatatum; settings: scale 0 to 100
Outline: as §1

mustard = assay type: in vivo, Brassica nigra; settings: scale 0 to 100
Outline: as §1

common groundsel = assay type: in vivo, Senecio vulgaris; settings: scale 0 to 100
Outline: as §1

southern sandbur = assay type: in vivo, Cenchrus echinatus; settings: scale 0 to 100
Outline: as §1

Virginia dayflower = assay type: in vivo, Commelina virginica; settings: scale 0 to 100
Outline: as §1

kochia = assay type: in vivo, Kochia scoparia; settings: scale 0 to 100; for Kochia plant response rating: 125 g ai/ha
Outline: as §1

quackgrass = assay type: in vivo, Elytrigia repens; settings: scale 0 to 100
Outline: as §1

common mallow = assay type: in vivo, Malva sylvestris; settings: scale 0 to 100
Outline: as §1

[1] = 62 g ai/ha, Preemergence, scale 0 to 100
[2] = 125 g ai/ha, preemergence, scale 0 to 100
[3] = Preemergence, 31 g ai/ha, scale 0 to 100

## Cc1cc[n+]([O-])c(S(=O)(=O)C(C)c2c(C(F)(F)F)nn(C)c2OC(F)F)c1 (stereo not drawn) [Compound 11]
guineagrass; 62 g ai/ha, Preemergence
  Guineagrass plant response rating: 100
guineagrass; 125 g ai/ha, preemergence
  Guineagrass plant response rating: 100
guineagrass; Preemergence, 16 g ai/ha
  Plant response rating, Guineagrass: 70
guineagrass; Preemergence, 31 g ai/ha
  Plant response rating, Guineagrass: 90
Surinam grass; 62 g ai/ha, Preemergence
  Surinam Grass plant response rating: 100
Surinam grass; 125 g ai/ha, preemergence
  Surinam Grass plant response rating: 100
Surinam grass; Preemergence, 31 g ai/ha
  Plant response rating, Surinam Grass: 98
Large crabgrass; 62 g ai/ha, Preemergence
  Crabgrass, Large plant response rating: 98
Large crabgrass; 125 g ai/ha, preemergence
  Crabgrass, Large plant response rating: 100
Large crabgrass; Preemergence, 16 g ai/ha
  Plant response rating, Crabgrass, Large: 60
Large crabgrass; Preemergence, 31 g ai/ha
  Plant response rating, Crabgrass, Large: 80
barnyardgrass; [1]
  Barnyardgrass plant response rating: 95
barnyardgrass; [2]
  Barnyardgrass plant response rating: 98
barnyardgrass; Preemergence, 16 g ai/ha, scale 0 to 100
  Plant response rating, Barnyardgrass: 75
barnyardgrass; [3]
  Plant response rating, Barnyardgrass: 95
Field bindweed; 62 g ai/ha, Preemergence
  Field Bindweed plant response rating: 60
Field bindweed; 125 g ai/ha, preemergence
  Field Bindweed plant response rating: 75
Field bindweed; Preemergence, 16 g ai/ha
  Plant response rating, Field Bindweed: 0
Field bindweed; Preemergence, 31 g ai/ha
  Plant response rating, Field Bindweed: 0
Annual bluegrass; 62 g ai/ha, Preemergence
  Bluegrass plant response rating: 60
Annual bluegrass; 125 g ai/ha, preemergence
  Bluegrass plant response rating: 90
Annual bluegrass; Preemergence, 16 g ai/ha
  Plant response rating, Bluegrass: 0
Annual bluegrass; Preemergence, 31 g ai/ha
  Plant response rating, Bluegrass: 30
Italian ryegrass; 62 g ai/ha, Preemergence
  Ryegrass, Italian plant response rating: 75
Italian ryegrass; 125 g ai/ha, preemergence
  Ryegrass, Italian plant response rating: 95
Italian ryegrass; Preemergence, 16 g ai/ha
  Plant response rating, Ryegrass, Italian: 35
Italian ryegrass; Preemergence, 31 g ai/ha
  Plant response rating, Ryegrass, Italian: 50
Common purslane; 62 g ai/ha, Preemergence
  Purslane plant response rating: 70
Common purslane; 125 g ai/ha, preemergence
  Purslane plant response rating: 80
Common purslane; Preemergence, 16 g ai/ha
  Plant response rating, Purslane: 40
Common purslane; Preemergence, 31 g ai/ha
  Plant response rating, Purslane: 60
dallisgrass; 62 g ai/ha, Preemergence
  Dallisgrass plant response rating: 90
dallisgrass; 125 g ai/ha, preemergence
  Dallisgrass plant response rating: 100
dallisgrass; Preemergence, 16 g ai/ha
  Plant response rating, Dallisgrass: 65
dallisgrass; Preemergence, 31 g ai/ha
  Plant response rating, Dallisgrass: 80
mustard; 62 g ai/ha, Preemergence
  Black Mustard plant response rating: 100
mustard; 125 g ai/ha, preemergence
  Black Mustard plant response rating: 100
mustard; Preemergence, 16 g ai/ha
  Plant response rating, Black Mustard: 35
mustard; Preemergence, 31 g ai/ha
  Plant response rating, Black Mustard: 80
Common groundsel; 62 g ai/ha, Preemergence
  Groundsel plant response rating: 95
Common groundsel; 125 g ai/ha, preemergence
  Groundsel plant response rating: 98
Common groundsel; Preemergence, 16 g ai/ha
  Plant response rating, Groundsel: 0
Common groundsel; Preemergence, 31 g ai/ha
  Plant response rating, Groundsel: 25
Southern sandbur; 62 g ai/ha, Preemergence
  Sandbur plant response rating: 100
Southern sandbur; 125 g ai/ha, preemergence
  Sandbur plant response rating: 100
Southern sandbur; Preemergence, 31 g ai/ha
  Plant response rating, Sandbur: 95
Virginia dayflower; 62 g ai/ha, Preemergence
  Dayflower plant response rating: 100
Virginia dayflower; 125 g ai/ha, preemergence
  Dayflower plant response rating: 100
Virginia dayflower; Preemergence, 16 g ai/ha
  Plant response rating, Dayflower: 0
Virginia dayflower; Preemergence, 31 g ai/ha
  Plant response rating, Dayflower: 80
kochia; preemergence
  Kochia plant response rating: 100
kochia; Preemergence, 16 g ai/ha
  Plant response rating, Kochia: 0
kochia; Preemergence, 31 g ai/ha
  Plant response rating, Kochia: 100
quackgrass; 62 g ai/ha, Preemergence
  Quackgrass plant response rating: 75
quackgrass; 125 g ai/ha, preemergence
  Quackgrass plant response rating: 90
quackgrass; Preemergence, 16 g ai/ha
  Plant response rating, Quackgrass: 0
quackgrass; Preemergence, 31 g ai/ha
  Plant response rating, Quackgrass: 60
Common mallow; 62 g ai/ha, Preemergence
  Mallow plant response rating: 100
Common mallow; 125 g ai/ha, preemergence
  Mallow plant response rating: 100
Common mallow; Preemergence, 16 g ai/ha
  Plant response rating, Mallow: 30
Common mallow; Preemergence, 31 g ai/ha
  Plant response rating, Mallow: 30

## CCn1nc(C(F)(F)F)c(CS(=O)(=O)c2cc(C)cc[n+]2[O-])c1OCC(F)(F)F [Compound 64]
guineagrass; 16 g ai/ha, preemergence
  Plant response rating, Guineagrass: 80
guineagrass; 62 g ai/ha, Preemergence
  Guineagrass plant response rating: 100
guineagrass; 125 g ai/ha, preemergence
  Guineagrass plant response rating: 100
guineagrass; Preemergence, 31 g ai/ha
  Plant response rating, Guineagrass: 98
Surinam grass; 16 g ai/ha, preemergence
  Plant response rating, Surinam Grass: 10
Surinam grass; 125 g ai/ha, preemergence
  Surinam Grass plant response rating: 100
Surinam grass; Preemergence, 62 g ai/ha
  Plant response rating, Surinam Grass: 95
Surinam grass; Preemergence, 31 g ai/ha
  Plant response rating, Surinam Grass: 90
Large crabgrass; 16 g ai/ha, preemergence
  Plant response rating, Crabgrass, Large: 10
Large crabgrass; 62 g ai/ha, Preemergence
  Crabgrass, Large plant response rating: 75
Large crabgrass; 125 g ai/ha, preemergence
  Crabgrass, Large plant response rating: 95
Large crabgrass; Preemergence, 31 g ai/ha
  Plant response rating, Crabgrass, Large: 65
barnyardgrass; 16 g ai/ha, preemergence, scale 0 to 100 (0 no effect, 100 complete control)
  Plant response rating, Barnyardgrass: 65
barnyardgrass; [1]
  Barnyardgrass plant response rating: 100
barnyardgrass; [2]
  Barnyardgrass plant response rating: 100
barnyardgrass; [3]
  Plant response rating, Barnyardgrass: 80
Field bindweed; 16 g ai/ha, preemergence
  Plant response rating, Field Bindweed: 0
Field bindweed; 62 g ai/ha, Preemergence
  Field Bindweed plant response rating: 0
Field bindweed; 125 g ai/ha, preemergence
  Field Bindweed plant response rating: 40
Field bindweed; Preemergence, 31 g ai/ha
  Plant response rating, Field Bindweed: 0
Annual bluegrass; 16 g ai/ha, preemergence
  Plant response rating, Bluegrass: 0
Annual bluegrass; 62 g ai/ha, Preemergence
  Bluegrass plant response rating: 90
Annual bluegrass; 125 g ai/ha, preemergence
  Bluegrass plant response rating: 90
Annual bluegrass; Preemergence, 31 g ai/ha
  Plant response rating, Bluegrass: 0
Italian ryegrass; 16 g ai/ha, preemergence
  Plant response rating, Ryegrass, Italian: 0
Italian ryegrass; 125 g ai/ha, preemergence
  Ryegrass, Italian plant response rating: 90
Italian ryegrass; Preemergence, 62 g ai/ha
  Plant response rating, Ryegrass, Italian: 75
Italian ryegrass; Preemergence, 31 g ai/ha
  Plant response rating, Ryegrass, Italian: 20
Common purslane; 16 g ai/ha, preemergence
  Plant response rating, Purslane: 0
Common purslane; 62 g ai/ha, Preemergence
  Purslane plant response rating: 30
Common purslane; 125 g ai/ha, preemergence
  Purslane plant response rating: 60
Common purslane; Preemergence, 31 g ai/ha
  Plant response rating, Purslane: 10
dallisgrass; 16 g ai/ha, preemergence
  Plant response rating, Dallisgrass: 0
dallisgrass; 62 g ai/ha, Preemergence
  Dallisgrass plant response rating: 70
dallisgrass; 125 g ai/ha, preemergence
  Dallisgrass plant response rating: 90
dallisgrass; Preemergence, 31 g ai/ha
  Plant response rating, Dallisgrass: 35
mustard; 16 g ai/ha, preemergence
  Plant response rating, Black Mustard: 0
mustard; 62 g ai/ha, Preemergence
  Black Mustard plant response rating: 80
mustard; 125 g ai/ha, preemergence
  Black Mustard plant response rating: 90
mustard; Preemergence, 31 g ai/ha
  Plant response rating, Black Mustard: 0
Common groundsel; 16 g ai/ha, preemergence
  Plant response rating, Groundsel: 0
Common groundsel; 62 g ai/ha, Preemergence
  Groundsel plant response rating: 15
Common groundsel; 125 g ai/ha, preemergence
  Groundsel plant response rating: 80
Common groundsel; Preemergence, 31 g ai/ha
  Plant response rating, Groundsel: 0
Southern sandbur; 16 g ai/ha, preemergence
  Plant response rating, Sandbur: 25
Southern sandbur; 125 g ai/ha, preemergence
  Sandbur plant response rating: 100
Southern sandbur; Preemergence, 62 g ai/ha
  Plant response rating, Sandbur: 80
Southern sandbur; Preemergence, 31 g ai/ha
  Plant response rating, Sandbur: 80
Virginia dayflower; 16 g ai/ha, preemergence
  Plant response rating, Dayflower: 0
kochia; 16 g ai/ha, preemergence
  Plant response rating, Kochia: 0
kochia; preemergence
  Kochia plant response rating: 75
quackgrass; 16 g ai/ha, preemergence
  Plant response rating, Quackgrass: 40
quackgrass; 62 g ai/ha, Preemergence
  Quackgrass plant response rating: 95
quackgrass; 125 g ai/ha, preemergence
  Quackgrass plant response rating: 95
quackgrass; Preemergence, 31 g ai/ha
  Plant response rating, Quackgrass: 75
Common mallow; 16 g ai/ha, preemergence
  Plant response rating, Mallow: 0
Common mallow; 62 g ai/ha, Preemergence
  Mallow plant response rating: 75
Common mallow; 125 g ai/ha, preemergence
  Mallow plant response rating: 100
Common mallow; Preemergence, 31 g ai/ha
  Plant response rating, Mallow: 35
